Entries after “also recorded” stand apart in the source; their conditions may differ. Read-outs that look alike come from different tables or passages of the source.
Assays:
IGF1 receptor = IGF1 receptor (Homo sapiens, UniProt P08069); assay: Blocking of IGF1 binding to the IGF1 receptor
H2122 NSCLC cells = assay: H2122 cell growth with and without IGF1 (Cell Titer-Glo); type: cell-based; conditions: 10 ug/ml MK-0646, 96 hours, 2% fetal calf serum
Procedure: H2122 cells were obtained from the American Type Culture Collection (ATCC) and propagated according to the conditions provided by ATCC in media at 37° C. H2122 cells in low serum (2% fetal calf serum (Hyclone), at 2000 cells/well, were plated in a 96 well plate and incubated with 10 ug/ml MK-0646 or vehicle control for 96 hours in the presence or absence of IGF1 (10 ng; SIGMA). Cells were harvested at day 0 and day 4 and cell growth was measured by Cell Titer-Glo® ([…]) according to manufacturer instructions. The relative cell proliferation was calculated by normalizing to day 0 levels.

[1] = system: primary colorectal xenograft tumor models; assay: Primary colorectal xenograft tumor models, tumor growth inhibition; type: in vivo
Procedure: Primary colorectal xenograft tumor models were established from 10 independent colorectal tumors obtained directly from cancer patients. The relative levels of IGF1RNA expression were determined by gene expression profiling using genomic microarrays. […] These preclinical data provided in vivo evidence that increase sensitivity to the anti-IGF1R antibody, MK-0646, was strongly associated with increase IGF1RNA expression in the primary tumors.

[2] = cited from earlier work

## MK-0646: anti-IGF1R monoclonal antibody dalotuzumab (MK0646; CAS no. 1005389-60-5)
IGF1 receptor
  blocking IGF1 ability to bind directly to the IGF1 receptor: capable of blocking
H2122 NSCLC cells; in the absence of IGF1
  proliferation of H2122 cells: did not significantly alter
H2122 NSCLC cells; in the presence of IGF1 (10 ng)
  IGF1-dependent proliferation / relative cell growth of H2122 cells: statistically significant growth inhibition; also recorded: significantly blocked
[1]; the 2 colorectal xenograft models with increased IGF1 RNA expression
  tumor growth inhibition: at least 50%
[1]; the 8 xenograft tumor models with low IGF1 expression
  tumor growth inhibition: minimal or no tumor growth inhibition
[2]; with G alone
  MTD: 10 mg/kg
[2]; with Gemcitabine (G) and Erlotinib (E)
  MTD: 5 mg/kg
